This is an account of results in patent US20070212712A1, “Methods for identifying modulators of hedgehog autoprocessing” (priority 2005, published 2007).

The test deals with Shh-N signaling. The test can be described thus: Autoprocessing-independent Shh-N signaling assay (Gli-luciferase, control). Format: cell-based, mouse. Conditions: 1 μM KAAD-cyclopamine. Here is the method:
This cell-based assay (FIGS. 1A and 1B) made use of Hh-responsive 3T3 mouse cells stably transfected with a Shh plasmid expressing full length Shh protein that undergoes autoprocessing to produce functionally active Shh protein. Cells incubated with pre-spliced N-Shh protein were used as a control. Shh signaling was assayed in control and treated cells using with dual luciferase reporter assay of luciferase activity expressed from an integrated copy of a Gli-luciferase reporter gene linked to of 8 tandem repeats of Gli transcription factor-binding sites, normalized to activity of a Renilla gene under the control of minimum TK promoter, to monitor toxicity and cell survival. Inhibition was confirmed by Western blot analysis of Hh autoprocessing (FIG. 2). Additional cell-based assays for testing the activities of candidate Hh autoprocessing inhibitors in blocking full-length Hh signaling include the measurement of Hh target gene expression (Patched, Gli , IGF2, N-myc; for example, via a luciferase-based assay) and chondrocyte differentiation of 10T½ cells. Persons skilled in the art will note that the above assays are also suitable for use in a cell-free assay system.

For `CC1=C2C[C@H]3[C@@H](CC=C4CC(=O)CC[C@@]43C)[C@@H]2CC[C@]12O[C@@H]1C[C@H](C)CN(CCNC(=O)CCCCCNC(=O)CCc3ccccc3)[C@H]1[C@H]2C` [KAAD-cyclopamine], the “Effect on Gli-luciferase activity in response to Shh-N” value was “inhibited Gli-luciferase activity”.
